The target of one assay is T1, NMDA receptor (Rattus norvegicus, UniProt P35439).
T1 construct: from tissue; host or cells: rat cortical slice
Kind of assay: antagonism of responses to NMDA, rat cortical slice preparation. The assay is classed as cell-based. As to the method: The effects of compounds of the invention on responses to the agonists NMDA, kainate and quisqualate were assessed using the rat cortical slice preparation as described by Wong et al., Proc. Natl. Acad. Sci. USA, 1986, 83, 7104. The apparent equilibrium constants (Kb) were calculated from the righthand shift in the agonist concentration-response curve.

The test system of assay [1] is excitatory amino acid receptors. The following applies: statement in words; R.H. Evans et al., Br. J. Pharmac., 1987, 91, 531; cited from earlier work.
Where [2] appears, read: rat cortical slice, apparent equilibrium constant (Kb) calculated from righthand shift in the agonist concentration-response curve, read-out: NMDA antagonist activity at concentrations (Kb).

The structures appear in SMILES notation. Counter-ions that a name gives are not always drawn. Like-named read-outs stand apart in the source and are kept apart here.

Consider 30 compounds from EP0303387B1, “Kynurenic acid derivatives useful in the treatment of neurodegenerative disorders” (MERCK SHARP & DOHME LTD., priority 1987, dated 1989).

Consider `O=C(NOCc1ccccc1)c1cc(=O)c2c(Cl)cc(Cl)cc2[nH]1` [5,7-Dichloro-4-oxo-1,4-dihydroquinoline-2-(O-benzyl)hydroxamic acid], for which the Kb at NMDA receptor (setting [2]) was under 100 µM. Still for that read-out and setting: the same measure for `O=C(NO)c1cc(=O)c2c(Cl)cc(Cl)cc2[nH]1` [5,7-Dichloro-4-oxo-1,4-dihydroquinoline-2-hydroxamic acid potassium salt.]: under 100 µM. Same read-out and setting: the same measure for `Cc1cc(C)c2c(O)cc(C(=O)O)nc2c1` [5,7-Dimethyl-4-oxo-1,4-dihydroquinoline-2-carboxylic acid]: under 100 µM.

Consider `O=C(O)c1cc(O)c2c(Br)cc(Br)cc2n1` [5,7-dibromo-4-oxo-1,4-dihydroquinoline-2-carboxylic acid], for which the Kb on NMDA receptor (setting [2]) is under 100 µM. On the same count and under the same terms, under `O=C(O)c1cc(O)c2c(Cl)cc(Cl)cc2n1` [5,7-dichloro-4-oxo-1,4-dihydroquinoline-2-carboxylic acid] stands under 100 µM. On the same count and under the same terms, the same measure for `CCc1cc(Br)c2c(O)cc(C(=O)O)nc2c1` [5-Bromo-7-ethyl-4-oxo-1,4-dihydroquinoline-2-carboxylic acid]: under 100 µM. Same read-out and setting: the same measure for `Cc1cc(Br)c2c(O)cc(C(=O)O)nc2c1` [5-Bromo-7-methyl-4-oxo-1,4-dihydroquinoline-2-carboxylic acid]: under 100 µM; for `CCc1cc(Cl)c2c(O)cc(C(=O)O)nc2c1` [5-Chloro-7-ethyl-4-oxo-1,4-dihydroquinoline-2-carboxylic acid]: under 100 µM; for `O=C(O)c1cc(O)c2c(Cl)cc(I)cc2n1` [5-Chloro-7-iodo-4-oxo-1,4-dihydroquinoline-2-carboxylic acid]: under 100 µM. Regarding `CCc1cccc2nc(C(=O)O)cc(O)c12` [5-Ethyl-4-oxo-1,4-dihydroquinoline-2-carboxylic acid], the Kb at NMDA receptor (setting [2]) was under 100 µM.

Take `O=C(O)c1cc(=O)c2c(F)cccc2[nH]1` [5-Fluoro-4-oxo-1,4-dihydroquinoline-2-carboxylic acid]: the Kb on NMDA receptor (setting [2]) was under 100 µM. Still for that read-out and setting: the same measure for `O=C(O)c1cc(O)c2c(I)cccc2n1` [5-Iodo-4-oxo-1,4-dihydroquinoline-2-carboxylic acid]: under 100 µM; for `Cc1cc(I)c2c(O)cc(C(=O)O)nc2c1` [5-Iodo-7-methyl-4-oxo-1,4-dihydroquinoline-2-carboxylic acid]: under 100 µM.

As to `O=C(O)c1cc(=O)c2c(C(F)(F)F)cccc2[nH]1` [5-Trifluoromethyl-4-oxo-1,4-dihydroquinoline-2-carboxylic acid], at NMDA receptor (setting [2]), the Kb is under 100 µM. Same read-out and setting: the same measure for `O=C(O)c1cc(=O)c2c(Br)cccc2[nH]1` [5-bromo-4-oxo-1,4-dihydroquinoline-2-carboxylic acid]: under 100 µM; for `O=C(O)c1cc(O)c2c(Cl)cccc2n1` [5-chloro-4-oxo-1,4-dihydroquinoline-2-carboxylic acid]: under 100 µM; for `Cc1cccc2nc(C(=O)O)cc(O)c12` [5-methyl-4-oxo-1,4-dihydroquinoline-2-carboxylic acid]: under 100 µM.

As to `O=C(O)c1cc(=O)c2cc(F)ccc2[nH]1` [6-fluoro-4-oxo-1,4-dihydroquinoline-2-carboxylic acid], the Kb at NMDA receptor (setting [2]) is under 100 µM. For the compound `CCc1cc(Br)cc2nc(C(=O)O)cc(O)c12` [7-Bromo-5-ethyl-4-oxo-1,4-dihydroquinoline-2-carboxylic acid], the Kb at NMDA receptor (setting [2]) is under 100 µM.

Consider `Cc1cc(Br)cc2nc(C(=O)O)cc(O)c12` [7-Bromo-5-methyl-4-oxo-1,4-dihydroquinoline-2-carboxylic acid], for which the Kb at NMDA receptor (setting [2]) is under 100 µM. Turning to `CCc1cc(Cl)cc2nc(C(=O)O)cc(O)c12` [7-Chloro-5-ethyl-4-oxo-1,4-dihydroquinoline-2-carboxylic acid], the Kb at NMDA receptor (setting [2]) is under 100 µM. As for `O=C(O)c1cc(O)c2c(I)cc(Cl)cc2n1` [7-Chloro-5-iodo-4-oxo-1,4-dihydroquinoline-2-carboxylic acid], on NMDA receptor (setting [2]), the Kb is under 100 µM. Same read-out and setting: the same measure for `Cc1cc(I)cc2nc(C(=O)O)cc(O)c12` [7-Iodo-5-methyl-4-oxo-1,4-dihydroquinoline-2-carboxylic acid]: under 100 µM. On NMDA receptor, `O=C(O)c1cc(O)c2ccc(Br)cc2n1` [7-bromo-4-oxo-1,4-dihydroquinoline-2-carboxylic acid] showed a Kb of under 100 µM. For `O=C(O)c1cc(O)c2ccc(Cl)cc2n1` [7-chloro-4-oxo-1,4-dihydroquinoline-2-carboxylic acid], on NMDA receptor (setting [2]), the Kb was under 100 µM.

With `O=C(O)c1cc(O)c2ccc(F)cc2n1` [7-fluoro-4-oxo-1,4-dihydroquinoline-2-carboxylic acid], at NMDA receptor (setting [2]), the Kb is under 100 µM. For `O=C(O)c1cc(O)c2ccc(I)cc2n1` [7-iodo-4-oxo-1,4-dihydroquinoline-2-carboxylic acid], the Kb at NMDA receptor (setting [2]) was under 100 µM. The same measure, in the same setting: under `Cc1ccc2c(O)cc(C(=O)O)nc2c1` [7-methyl-4-oxo-1,4-dihydroquinoline-2-carboxylic acid] stands under 100 µM; under `O=C(O)c1cc(=O)c2ccc([N+](=O)[O-])cc2[nH]1` [7-nitro-4-oxo-1,4-dihydroquinoline-2-carboxylic acid], under 100 µM. Regarding `O=C(O)c1cc(=O)c2ccccc2[nH]1` [Kynurenic acid, 4-oxo-1,4-dihydroquinoline-2-carboxylic acid], the “antagonist of excitatory amino acid receptors” value in assay [1] is “weak and non-selective antagonist”.
